Non-standard residues stand in square brackets, D forms with d. Residues, ends and D or L forms follow the SMILES beside them. ξ: configuration not given here. *: point of attachment. AFC = O=c1cc(C(F)(F)F)c2ccc(N*)cc2o1; AMC = Cc1cc(=O)oc2cc(N*)ccc12; Cbz = O=C(OCc1ccccc1)*; ξP = O=C(O)C1CCCN1
Legend:
Type in all cases: biochemical
FAP [1] = molecular target: T1, FAP (Homo sapiens, UniProt Q12884); test: Relative cleavage rates of coumarin (AMCC) dipeptide substrates by FAP; parameters: FAP (amino acids 38-760); FLAG (N); made in house; host or cells: 293 cells (secreted, purified from serum-free conditioned media); settings: for relative cleavage rate by FAP: N-blocked Gly-Pro-AMCC substrates 6, normalized to N-unblocked Gly-Pro-AMCC, FAP 37 nM
T1 sequence (Q12884 38-760): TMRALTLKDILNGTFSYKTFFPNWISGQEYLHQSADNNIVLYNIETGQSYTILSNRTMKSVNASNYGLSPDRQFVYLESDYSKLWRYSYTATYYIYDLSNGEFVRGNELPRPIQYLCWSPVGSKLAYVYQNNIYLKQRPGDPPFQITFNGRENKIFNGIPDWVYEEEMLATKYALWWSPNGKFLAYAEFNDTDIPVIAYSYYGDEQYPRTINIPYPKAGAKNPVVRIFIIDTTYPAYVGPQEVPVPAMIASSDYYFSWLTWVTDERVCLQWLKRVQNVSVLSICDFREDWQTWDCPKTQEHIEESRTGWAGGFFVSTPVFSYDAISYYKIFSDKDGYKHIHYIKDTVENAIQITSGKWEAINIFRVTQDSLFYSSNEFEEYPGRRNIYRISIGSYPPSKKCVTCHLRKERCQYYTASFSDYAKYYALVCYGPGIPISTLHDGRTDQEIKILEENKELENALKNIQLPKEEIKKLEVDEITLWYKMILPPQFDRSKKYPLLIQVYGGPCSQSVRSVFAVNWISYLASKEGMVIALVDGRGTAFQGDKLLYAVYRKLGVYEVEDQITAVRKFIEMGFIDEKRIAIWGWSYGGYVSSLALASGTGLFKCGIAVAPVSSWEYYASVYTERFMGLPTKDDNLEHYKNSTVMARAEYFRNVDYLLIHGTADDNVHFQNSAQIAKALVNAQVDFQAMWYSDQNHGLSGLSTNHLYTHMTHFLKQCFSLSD
Protocol: (§1) The relative cleavage rates of a variety of N-blocked, C-terminal coumarin (AMCC) Gly-Pro dipeptide substrates 6 were measured. The rates were normalized to N-unblocked Gly-Pro-AMCC for FAP and DPP-4.
(§2) To examine whether FAP could cleave other N-substituted-Gly-Pro-based substrates, N-methyl-, formyl-, succinyl-, benzyloxycarbonyl-(Z-) and biotinyl-Gly-Pro-AMCC substrates 6 were synthesized and reacted with FAP (37 nM) and DPP-4 (6.8 nM).
(§3) Amino-terminus P2 was varied with the L-amino acids: alanine, aspartic acid, glutamic acid, phenylalanine, glycine, histidine, isoleucine, lysine, leucine, methionine, asparagine, proline, glutamine, arginine, serine, threonine, valine, tryptophan, and tyrosine (from left). AMCC=2-(7-amino-4-methyl-2-oxo-2H-chromen-3-yl)acetamide. For both enzymes, the amino acid adjacent in the model dipeptide substrate had little effect where the amino-terminus was unblocked. Hydrolysis rates of other P2-Pro-AMCC substrates by FAP and DPP-4 relative to Gly-Pro-AMCC include the following in Table 6:
(§4) Protease Assays—Protease activity was monitored continuously using a SpectraMax M2 microplate reader (Molecular Devices Corp., Sunnyvale Calif.) in the kinetic mode. Assays were conducted at 23° C. in 50 mM Tris (pH 7.4), 100 mM NaCl, 1 mM EDTA. The excitation/emission wavelengths for the different fluorogenic substrates were 360/460 nm (AMC), 400/505 nm (AFC), 340/425 nm (MNA), 340/510 nm (EDANS), and 337/425 nm (Abs). Standard curves of the appropriate fluorescent product versus concentration were used to convert relative fluorescence units to nmol of product produced. Substrates in the X-Pro-AMC library were used in rate assays at 5 μM final concentration. […] The kinetic parameters were calculated from Michaelis-Menten plots (V0 versus [S]) with nonlinear regression analysis using GraphPad software. kcat values were calculated under the assumption that each protease was 100% active.

DPP-4 [2] = molecular target: T2, DPP-4 (Homo sapiens, UniProt P27487); test: Relative cleavage rates of coumarin (AMCC) dipeptide substrates by DPP-4; parameters: DPP-4 (amino acids 39-766); FLAG (N); made in house; host or cells: 293 cells (secreted, purified from serum-free conditioned media); settings: for relative cleavage rate by DPP-4: N-blocked Gly-Pro-AMCC substrates 6, normalized to N-unblocked Gly-Pro-AMCC; for relative cleavage rate by DPP-4 / cleavage of N-substituted-Gly-Pro-AMCC substrates by DPP-4 (in words): DPP-4 6.8 nM; for cleavage of N-substituted-Gly-Pro-AMCC substrates by DPP-4 (in words): substrate concentrations up to 1 mM
T2 sequence (P27487 39-766): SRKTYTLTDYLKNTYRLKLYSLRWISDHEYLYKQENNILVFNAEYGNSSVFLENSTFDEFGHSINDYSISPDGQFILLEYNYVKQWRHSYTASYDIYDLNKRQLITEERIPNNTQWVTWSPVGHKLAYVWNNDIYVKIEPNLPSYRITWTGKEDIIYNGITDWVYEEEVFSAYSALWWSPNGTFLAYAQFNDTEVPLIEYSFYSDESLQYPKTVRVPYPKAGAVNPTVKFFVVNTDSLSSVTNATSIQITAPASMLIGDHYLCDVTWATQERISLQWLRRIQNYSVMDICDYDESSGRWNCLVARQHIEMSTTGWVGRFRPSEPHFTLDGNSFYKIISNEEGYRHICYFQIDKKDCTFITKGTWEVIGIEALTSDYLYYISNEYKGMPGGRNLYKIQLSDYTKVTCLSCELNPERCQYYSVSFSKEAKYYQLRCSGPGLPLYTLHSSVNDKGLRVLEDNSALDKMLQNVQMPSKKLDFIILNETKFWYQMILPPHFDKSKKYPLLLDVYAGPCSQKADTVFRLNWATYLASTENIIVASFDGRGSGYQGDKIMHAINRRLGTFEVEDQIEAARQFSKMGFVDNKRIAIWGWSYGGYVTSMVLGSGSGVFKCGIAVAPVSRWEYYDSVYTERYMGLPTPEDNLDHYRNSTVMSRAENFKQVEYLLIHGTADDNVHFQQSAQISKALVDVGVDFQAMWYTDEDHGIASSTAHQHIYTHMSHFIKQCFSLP
Protocol: as §1, §2, §3, §4

FAP [3] = molecular target: T1, FAP; test: Hydrolysis of C-terminal coumarin dipeptide substrates by FAP (kinetic constants); parameters: FAP (amino acids 38-760); FLAG (N); made in house; host or cells: 293 cells (secreted, purified from serum-free conditioned media); settings: for Km / Kcat: pH 7.4, NC = no cleavage up to 1 mM substrate
Protocol: (§5) The relative cleavage rates by FAP and several dipeptidases of N-blocked (8) and unblocked (7) Gly-Pro dipeptide substrates were measured.
(§6) The cleavage (hydrolysis) rates of various C-terminal coumarin dipeptide substrates 7-16 by FAP and DPP-4 were measured (Tables 4 and 5). The amino-terminus of the substrates was unblocked and the amino acids were varied in Table 4. The amino-terminus of the substrates was blocked and the amino acids were varied in Table 5. To extend the results obtained with the dipeptide substrate library, kinetic parameters were determined for cleavage of the unblocked dipeptide substrates by FAP (Table 4). The catalytic efficiency (kcat/Km) for substrate cleavage was greatest with Ile-Pro-AFC, followed by Ala-Pro-, Gly-Pro- and Phe-Pro-AFC, consistent with the dipeptide substrate library results (FIG. 5). […] Kinetic constants for cleavage of Ala-Pro-AFC and Gly-Pro-AFC by DPP-4 were determined (Table 4). The catalytic efficiency for Ala-Pro-AFC hydrolysis was greater than that for Gly-Pro-AFC, and consistent with the dipeptide library.
as §4
(§7) When saturating amounts of substrate could not be achieved, catalytic efficiencies (kcat/Km) were determined under pseudo-first order conditions ([S]<<the estimated Km) and fit to the following equation: Ln[St/S0]=−kobst, where St is the concentration of substrate remaining at time t, S0 is the initial substrate concentration and kobs is the apparent first order substrate cleavage constant equal to (kcat/Km) times ET, the total enzyme concentration (Copeland, R. (2000) Enzymes, A Practical Introduction to Structure, Mechanism, and Data Analysis, 2nd Ed., John Wiley and Sons, Inc, New York). The linear relationship of Ln[St/S0] versus time allows calculation of kcat/Km by dividing the slope of the plot by ET.

DPP-4 [4] = molecular target: T2, DPP-4; test: Hydrolysis of C-terminal coumarin dipeptide substrates by DPP-4 (kinetic constants); parameters: DPP-4 (amino acids 39-766); FLAG (N); made in house; host or cells: 293 cells (secreted, purified from serum-free conditioned media)
Protocol: as §5, §6, §4, §7

DPP-4 [5] = molecular target: T2, DPP-4; test: Inhibition of DPP-4 by N-blocked boroPro compounds (progress curves); parameters: DPP-4 (amino acids 39-766); FLAG (N); made in house; host or cells: 293 cells (secreted, purified from serum-free conditioned media); settings: cleavage of substrate L-Ala-Pro-AFC
Protocol: The steady states of product formation in the absence (V0) and presence of inhibitor (Vi) were used to calculate apparent inhibition constants (Kiapp) by plotting V0/Vi−1 against inhibitor concentration.
Briefly, proteases were added to a reaction mixture containing inhibitor and substrate (Ac-Ala-AMC for APH, Z-Gly-Pro-AMC for POP, and Ala-Pro-AFC for all others) in assay buffer at 23° C. Protease activity was followed continuously as described above to monitor time-dependent inhibition. Data were plotted as V0/Vi−1 versus [I], where V0 is the rate if substrate hydrolysis in the absence of inhibitor, Vi is the steady state rate of substrate hydrolysis in the presence of inhibitor and [I] is the concentration of Ac-Gly-BoroPro.
KI values for inhibition of proteases by 5 were determined using the method of progress curves. Briefly, proteases (10-100 nM) were added to a reaction mixture containing inhibitor 5 (0-10 μM) and substrate AP-AFC in assay buffer at 23° C. […] Data were plotted as V0/Vi−1 versus [I], where V0 is the rate if substrate hydrolysis in the absence of inhibitor, Vi is the steady state rate of substrate hydrolysis in the presence of inhibitor and [I] is the concentration of 5. […] Ki, the true equilibrium inhibition constant was determined according to the following relationship: Ki=Kobs/(1+[S]/Km), where [S] is the concentration of substrate used in the assay and Km is the Michaelis constant for substrate cleavage.

[6] = FAP, substrates with unblocked N-termini, 23° C. in 50 mM Tris-HCl, 100 mM NaCl, 1 mM EDTA
[7] = FAP, substrates with unblocked N-termini, 23° C.
[8] = DPP-4, substrates with unblocked N-termini, 23° C., pH 7.4
[9] = P2-Pro-AMCC substrates, hydrolysis rates normalized to Gly-Pro-AMCC
[10] = FAP, substrates with blocked N-termini, 23° C.

| Molecule | relative cleavage rate by FAP (FAP [1]) | relative cleavage rate by DPP-4 (DPP-4 [2]) | Km (FAP [3]; [6]) | Kcat (FAP [3]; [7]) | cleavage of N-substituted-Gly-Pro-AMCC substrates by DPP-4 (in words) (DPP-4 [2]) | further results |
| --- | --- | --- | --- | --- | --- | --- |
| O=C(O)c1ccc2c(c1)C(=O)OC21c2ccc(O)cc2Oc2cc(O)ccc21 [5-carboxyfluorescein] | 36% | 0% |  |  |  |  |
| C[C@H](N)C(=O)N1CCC[C@H]1C(=O)Nc1ccc2c(C(F)(F)F)cc(=O)oc2c1 [Ala-Pro-AFC 9, Ala-Pro-7-amino-4-trifluoromethylcoumarin] (H-Ala-Pro-{AFC}) |  |  | 244 ± 28 µM | 14.2 ± 0.9 s⁻¹ |  | Kcat (DPP-4 [4]; [8]): 45.6 ± 1.7 s⁻¹; Km (DPP-4 [4]; [8]): 16 ± 3 µM |
| Cc1c(CC(N)=O)c(=O)oc2cc(NC(=O)[C@@H]3CCCN3C(=O)[C@@H](C)N)ccc12 [D-Ala] |  |  |  |  |  | Relative Hydrolysis rate by FAP (FAP [1]; [9]): 0; Relative Hydrolysis rate by DPP-4 (DPP-4 [2]; [9]): 2 |
| Cc1cc(=O)oc2cc(NC(=O)[C@H](C)NC(=O)CN)ccc12 [Gly-Ala-AMC 11, Gly-Ala-AMC] (H-Gly-Ala-{AMC}) |  |  |  |  |  | cleavage by FAP (in words) (FAP [3]): not cleaved |
| CC[C@H](C)[C@H](N)C(=O)N1CCC[C@H]1C(=O)Nc1ccc2c(C(F)(F)F)cc(=O)oc2c1 [Ile-Pro-AFC 13, Ile-Pro-AFC] (H-Ile-Pro-{AFC}) |  |  | 106 ± 6 µM | 6.9 ± 0.3 s⁻¹ |  | Km, fold lower than the other P2-Pro-AFC substrates (FAP [3]; FAP): ~2.5 fold |
| Cc1cc(=O)oc2cc(NC(=O)C(C)NC(=O)C(N)CCCCN)ccc12 (stereo not drawn) [Lys-Ala-AMC 12, Lys-Ala-AMC] (H-Lys-Ala-{AMC}; configuration not given here) |  |  | 189 ± 20 µM | 0.01 ± 0.001 s⁻¹ |  | catalytic efficiency, fold less than for cleavage of P2-Pro-based peptides (FAP [3]; FAP): 400-1000 fold |
| CC(=O)N[C@H](C)C(=O)N1CCCC1B(O)O (some centres unmarked) [N-Ac-(D)Ala-boroPro] |  |  |  |  |  | Ki (DPP-4 [5]): > 40 µM |
| NC(Cc1ccccc1)C(=O)N1CCCC1C(=O)Nc1ccc2c(C(F)(F)F)cc(=O)oc2c1 (stereo not drawn) [Phe-Pro-AFC 10, Phe-Pro-AFC] (H-Phe-Pro-{AFC}; configuration not given here) |  |  | 245 ± 22 µM | 1.1 ± 0.1 s⁻¹ |  |  |
| Cc1cc(=O)oc2cc(NC(=O)C3CCCN3C(=O)CNC(=O)OCc3ccccc3)ccc12 (stereo not drawn) [Z-Gly-Pro-AMC 14, Benzyloxycarbonyl (Z)-Gly-Pro-7-amino-4-methylcoumarin] (Cbz-Gly-[ξP]-{AMC}) |  |  |  |  |  | catalytic efficiency, fold lower than that for Gly-Pro-AFC (FAP [3]; FAP): about 3 fold; Kcat (FAP [3]; [10]): <30 s⁻¹; Km (FAP [3]; [10]): > 4 µM; DPP-4 activity against substrate (in words) (DPP-4 [4]): little activity |
| N-methyl-Gly-Pro-AMCC |  |  |  |  | comparable to Gly-Pro-AMCC |  |
| biotinyl-Gly-Pro-AMCC | 40% | 0% |  |  | no cleavage |  |
| formyl-Gly-Pro-AMCC [HC(═O)] | 130% | 7% |  |  | low rate of hydrolysis |  |
| succinyl-Gly-Pro-AMCC [HO2CCH2CH2C(═O)] | 0% | 0% |  |  | no cleavage |  |
